The source of these data is paper doi:10.1101/2022.02.09.479835v1 (biorxiv, 2022).

Where a SMILES comes first, the peptide text is derived from it. The star is where a group is joined. Cbz = O=C(OCc1ccccc1)* Where only a bound is given, the exact number is not on record here.

For test [1], the target named is human CatL (cathepsin-L, CTSL) (Homo sapiens, UniProt P07711). The test can be described thus: FRET peptide cleavage HTS. The class given is biochemical. The conditions noted are these: read-out: % inhibition at 20 uM.
Sequence of human CatL (cathepsin-L, CTSL) (P07711 114-288): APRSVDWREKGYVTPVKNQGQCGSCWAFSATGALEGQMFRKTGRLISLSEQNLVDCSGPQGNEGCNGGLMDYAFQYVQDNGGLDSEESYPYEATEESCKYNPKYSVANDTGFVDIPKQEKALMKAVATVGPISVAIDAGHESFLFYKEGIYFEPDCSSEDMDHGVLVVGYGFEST
Sequence of human CatL (cathepsin-L, CTSL) (P07711 292-333): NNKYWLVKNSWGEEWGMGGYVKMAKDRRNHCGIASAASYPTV
For a further test, the target named is 3CL-Pro (Severe acute respiratory syndrome coronavirus 2, UniProt P0DTD1). The test can be described thus: biochemical.

Regarding `CC(=O)N[C@@H](CC(C)C)C(=O)N[C@@H](CC(C)C)C(=O)N[C@H](C=O)CCCNC(=N)N` [leupeptin hemisulfate], the inhibition at 20 µM in test [1] was above 50%.
In the case of `CC(C)C[C@H](NC(=O)OCc1ccccc1)C(=O)N[C@@H](C[C@@H]1CCNC1=O)C(O)S(=O)(=O)O` (stereo partly drawn) [GC-376], the inhibition at 20 µM in test [1] was above 50%.
Still for that read-out and setting: then `CCCN1CCN(c2ccc(C(=O)NC3(C(=O)NCC#N)CCCCC3)cc2)CC1` [balicatib], with above 50%; and `CC(C)C[C@@H](C=O)NC(=O)[C@H](CC(C)C)NC(=O)[C@H](CC(C)C)NC(=O)OCc1ccccc1` [MG-132] (Cbz-Leu-Leu-Leu-aldehyde), with above 50%.
With `C[C@H](NC(=O)[C@H](Cc1ccccc1)NC(=O)OCc1ccccc1)C(=O)CF` [Z-FA-FMK], the inhibition at 20 µM in test [1] was above 50%. This compound also registered an IC50 against 3CL-Pro of 9.67 µM.
